The numbers were not newly measured in US20260021104A1, “BRILAROXAZINE LIPOSOME COMPOSITION” (Reviva Pharmaceuticals, Inc., priority 2023, published 2026), which cites them from elsewhere.

Series [1] addresses serotonin transporter (SERT) (Homo sapiens, UniProt P31645).
Another series has as its target 5-HT2A (Homo sapiens, UniProt P28223). Particulars: weak partial agonist or neutral antagonist.
In another series the test system is D2-4 receptors. Particulars: partial agonist.
A further series concerns the target T1, 5-HT1A receptors (Homo sapiens, UniProt P08908).
T1 sequence (P08908 1-422): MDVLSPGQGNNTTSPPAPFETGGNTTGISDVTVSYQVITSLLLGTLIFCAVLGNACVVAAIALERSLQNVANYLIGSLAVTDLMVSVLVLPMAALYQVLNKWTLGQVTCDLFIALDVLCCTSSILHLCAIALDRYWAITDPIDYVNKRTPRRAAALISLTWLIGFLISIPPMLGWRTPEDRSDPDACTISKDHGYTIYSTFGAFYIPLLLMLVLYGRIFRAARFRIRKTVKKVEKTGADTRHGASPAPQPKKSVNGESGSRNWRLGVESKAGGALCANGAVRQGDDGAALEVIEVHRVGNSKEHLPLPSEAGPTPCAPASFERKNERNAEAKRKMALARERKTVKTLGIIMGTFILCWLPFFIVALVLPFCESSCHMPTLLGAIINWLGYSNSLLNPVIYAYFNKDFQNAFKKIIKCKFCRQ
The settings on record: partial agonist.

Another series deals with 5-HT2B/7. The settings on record: antagonist.

5-HT2A, sequence (P28223 whole entry, species assumed): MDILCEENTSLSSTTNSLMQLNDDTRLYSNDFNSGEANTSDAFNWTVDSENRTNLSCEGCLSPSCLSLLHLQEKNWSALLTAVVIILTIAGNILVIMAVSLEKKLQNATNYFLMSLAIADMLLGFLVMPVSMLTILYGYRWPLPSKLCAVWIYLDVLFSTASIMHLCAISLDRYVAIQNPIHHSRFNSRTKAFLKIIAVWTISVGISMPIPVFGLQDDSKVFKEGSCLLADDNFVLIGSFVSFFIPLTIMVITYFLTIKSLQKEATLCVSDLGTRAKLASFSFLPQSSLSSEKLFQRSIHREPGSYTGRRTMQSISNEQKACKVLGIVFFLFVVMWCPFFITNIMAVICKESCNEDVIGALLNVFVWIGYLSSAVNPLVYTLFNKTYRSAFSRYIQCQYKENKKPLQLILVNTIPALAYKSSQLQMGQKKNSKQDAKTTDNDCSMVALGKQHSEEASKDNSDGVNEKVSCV
serotonin transporter (SERT), sequence (P31645 whole entry, species assumed): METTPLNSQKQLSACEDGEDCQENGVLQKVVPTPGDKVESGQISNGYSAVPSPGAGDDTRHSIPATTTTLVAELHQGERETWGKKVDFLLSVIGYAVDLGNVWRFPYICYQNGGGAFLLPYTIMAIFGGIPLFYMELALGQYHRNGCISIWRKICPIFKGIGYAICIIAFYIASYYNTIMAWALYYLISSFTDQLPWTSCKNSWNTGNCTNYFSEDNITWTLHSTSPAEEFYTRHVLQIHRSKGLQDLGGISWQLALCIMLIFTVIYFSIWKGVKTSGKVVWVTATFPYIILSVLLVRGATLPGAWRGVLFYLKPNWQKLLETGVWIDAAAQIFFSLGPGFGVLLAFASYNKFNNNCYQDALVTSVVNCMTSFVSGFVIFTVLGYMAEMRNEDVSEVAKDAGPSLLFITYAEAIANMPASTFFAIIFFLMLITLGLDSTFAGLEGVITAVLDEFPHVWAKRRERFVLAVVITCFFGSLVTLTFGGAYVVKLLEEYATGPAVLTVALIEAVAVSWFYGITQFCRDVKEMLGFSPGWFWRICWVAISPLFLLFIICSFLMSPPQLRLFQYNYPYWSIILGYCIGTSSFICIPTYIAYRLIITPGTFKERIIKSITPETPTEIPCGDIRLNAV

`O=C1COc2ccc(OCCCCN3CCN(c4cccc(Cl)c4Cl)CC3)cc2N1` [Brilaroxazine]: the affinity result in series [1] is listed as “moderate affinity”. Moreover, the binding affinity result on 5-HT2A, in the series with D2-4 receptors, on 5-HT1A receptors and in the series with 5-HT2B/7 was “high binding affinity” throughout.
